For test [1] the following is noted: intake of alcohol while eating vs no alcohol; FIG. 10.
Procedure: The tip of index finger was gently wiped with a paper towel soaked with pure water. The bottom end of a microtube containing 50 μL of pure water was held with the thumb, with the upper opening of the microtube in contact with the tip of the index finger (see FIG. 1A). With the microtube held with the index finger and the thumb, the microtube was inverted to contact the pure water to the skin surface of the index finger for 1 minute.
Eleven subjects were allowed to eat the same food during the time period of from 12:00 to 13:00, and the epidermal fluid was collected at 12:00, 13:00, 14:00, 15:00, and 16:00.
In test [2] the test system is three-dimensional culture skin (Kurabo; EPI-200X). Briefly: Nicotinamide metabolites on the epidermis surface of cultured skin after adding cortisol to the culture solution. It is filed as cell-based. As to conditions: glucocorticoid (cortisol) 50 nM or 500 nM in culture solution, sample collected from epidermis side after 1 hour. Here is the method:
Assessment was made as to the ability of a cultured skin to secrete nicotinamide metabolites on the horny layer of epidermis surface in response to cortisol or glucose. A three-dimensional culture skin (Kurabo; EPI-200X) was cultured with its dermis side in contact with the culture solution. Glucocorticoid (cortisol) was added to the culture solution to make the final concentration 50 nM or 500 nM. After 1 hour, 150 μL of PBS was contacted to the epidermis side, and the sample was collected. The amounts of NAD+, NADH, NADP+, and NADPH in the sample were then measured using commercially available colorimetric analysis kits (Amplite Colorimetric NAD/NADH Assay Kit, Amplite Colorimetric NADP/NADPH Assay Kit; ABD Bioquest Inc.).

As to `CCO` [alcohol], in test [1], the “transient increase in NAD+/NADH ratio in epidermal fluid” value is reported as “more enhanced”.
As for `C[C@]12CCC(=O)C=C1CC[C@@H]1[C@@H]2[C@@H](O)C[C@@]2(C)[C@H]1CC[C@]2(O)C(=O)CO` [glucocorticoid, cortisol], the “NAD+/NADH ratio” value in test [2] (FIG. 12A) is recorded as “increased concentration dependently”. In test [2] (FIG. 12B), the “NADP+/NADPH ratio” value is listed as “no change”.

The values are drawn from patent US20120034641A1, “BIOLOGICAL INFORMATION ACQUISITION METHOD” (SONY CORPORATION, priority 2010, published 2012).
